Experimental data reported in patent publication US20230172920A1, “DOSING REGIMEN FOR TREATING A DISEASE MODULATED BY CSF-1R” (Novartis AG, priority 2020, published 2023).
Read-outs that look alike come from different tables or passages of the source.

Legend:
Soluble TREM2 = Soluble TREM2 in plasma and CSF, 13-wk cynomolgus monkey study (1779034); assay type: in vivo; conditions: for TREM2 plasma values: 7 days-on 7 days-off, mid- and high-doses; for decrease of soluble TREM2 in CSF: high dose
Procedure: In a preclinical 13-wk study (Study number 1779034), cynomolgus monkey were treated with 30, 60 and 200 mg/kg/day BLZ945 on daily oral dosing or at 60 and 200 mg/kg/day on 7 days-on and 7 days-off treatment cycles. With either regimen, the dosing period was for 91 days followed by a drug-free period up to a total of […]. Plasma was collected at pre-dose, during the dosing period at different time points and during the recovery time, and CSF was collected at necropsy at end of dosing and recovery periods. Soluble TREM2, a biomarker of microglial activation, was measured in plasma and CSF.

microglia = assay: CNS microglia clearance in mice, Iba1/Aif-1 staining of cortex (RD-2019-00100); assay type: in vivo; conditions: for microglial depletion / microglial reduction: 5 consecutive days; for microglia brain repopulation: 169 mg/kg qd 5 days; for microglia depleted in the cortex: 169 mg/kg qd
Procedure: Several studies were performed to understand PK/PD relationships for CNS microglia clearance in mice. In the first study (RD-2019-00100) mice were treated once daily (qd) for between 1 and 5 consecutive days with a dose of 169 mg/kg BLZ945. Additionally, two dose groups received 169 mg/kg BLZ945 for 5 consecutive days followed by either 3 or 7 days of drug withdrawal (washout). […] Pharmacokinetic analysis was performed on blood and brain samples taken from each group at 3 hours after the final dose on the indicated necropsy day. […] Exposures dropped by more than 1000-fold following the washout period (FIG. 8 B).
FIG. 8: (A) Microglial depletion in the cortex, as assessed by Iba1/Aif-1 immunohistological staining at necropsy. Sections were analyzed for total number of microglia cell bodies per sample area. Values are group means±SD (n=3). (B) Exposure of BLZ945 in blood and brain 3 hours after the last dose on the day of necropsy. Values are group means (n=3).
In a follow-up study (RD-2019-00100), mice were treated with BLZ945 for 5 consecutive days with a range of doses from 7 to 169 mg/kg. The two lowest doses of 7 mg/kg and 20 mg/kg were ineffective for microglial depletion. […] Here the ratio of brain to blood exposures was approximately 30% at the four lowest doses and approximately 55% at the highest dose (FIG. 9 B).
FIG. 9: Dose-dependent reduction of microglia. (A) Mice were treated for 5 consecutive days with BLZ945 at the indicated doses. Samples were analyzed histologically by Iba1/Aif-1 staining and quantified for total microglia cell bodies per sample area. Data are group means±SD (n=3). (B) Exposure of BLZ945 in blood and brain following 5 consecutive days of dosing at multiple doses. Values are group means±SD (n=3).

clinical = assay: clinical; set-up: species or system human; conditions: in vivo
Procedure: On days that PK samples are obtained, the patient should take BLZ945 during the clinic visit after the pre-dose PK samples and prior to post-dose PK samples, when instructed by the study staff. Patients should take BLZ945 on an empty stomach (i.e. fast from food and drink, except water) at least 1 hour before or 2 hours after a meal. Each dose should be taken with a glass of water. Patients should be instructed to swallow whole capsules and not to chew or open them.
The preliminary pharmacokinetics (PK) of single dose and multiple doses of oral BLZ945 when administered alone and in combination with spartalizumab has been assessed in the ongoing study CBLZ945X2101.

[1] = Blood and spinal cord exposure, 8-week SOD1G93A efficacy study; assay type: in vivo, SOD1G93A mouse; conditions: for Kp at 3 h / concentration at 3 h: mouse; for Kp at 3 h: spinal cord relative to blood; for concentration at 3 h: blood, read-out: Blood conc.
Procedure: BLZ945 was dosed over an 8-week period in a mouse model of ALS (in house data). BLZ945 was tested for efficacy in preventing or delaying disease progression in the SOD1G93A ALS mouse (RD-2019-00092). […] Normal body weight gain is also impaired in this model. These physiological impairments are considered as mechanistic readouts given that they best recapitulate the clinical disease phenotype (Turner et al 2013). Animals were dosed from 8 to 16 weeks of age with daily (q.d) doses of BLZ945 at either 65 mg/kg, 170 mg/kg, or 170 mg/kg delivered intermittently with a 7 day ON/7 day OFF regimen.
Microglia were depleted by greater than 90% with the high dose (170 mg/kg) of BLZ945 and by about 50% with the low dose (65 mg/kg). […] Blood and CNS exposure to BLZ945 were measured at 3 hours post-dose on the day of necropsy (Table 8). BLZ945 spinal cord exposure ratios (relative to blood) were consistent across dose groups at approximately 0.4 (Table 9).

CNC(=O)c1cc(Oc2ccc3nc(N[C@@H]4CCCC[C@H]4O)sc3c2)ccn1 [BLZ945, 4-((2-(((1R,2R)-2-hydroxycyclohexyl)amino)benzo[d]thiazol-6-yl)oxy)-N-methylpicolinamide]
TREM2 plasma values (Soluble TREM2; end of off-treatment week): in the range of control values at end of off-treatment week
TREM2 plasma values (Soluble TREM2; end of on-treatment weeks): decreased at end of on-treatment weeks
decrease of soluble TREM2 in CSF (Soluble TREM2; continuous dosing 3 months): about 25 fold
time for plasma TREM2 to return to baseline after cessation of dosing (Soluble TREM2; continuous dosing regimen): ≤ 7 days
soluble TREM2 values at end of recovery phase (Soluble TREM2; high daily and high on/off treatment groups): returned to that of untreated controls
plasma TREM2, remaining (Soluble TREM2; mid-continuous (60 mg/kg/day) and high continuous (200 mg/kg/day) daily oral dosing): 40-45 % of the predose value
decrease of soluble TREM2 in CSF (Soluble TREM2; on-off dosing 3 months): about 4.6 fold
microglial depletion (microglia; 7 mg/kg): ineffective
microglial depletion (microglia; 20 mg/kg): ineffective
microglial reduction (microglia; 60 mg/kg): 25%
microglial reduction (microglia; 100 mg/kg): 60%
microglia brain repopulation (microglia; then 3 days washout): ~80 % of vehicle
microglia brain repopulation (microglia; then 7 days washout): complete repopulation
microglia depleted in the cortex (microglia; day 2): approximately 50%
microglia depleted in the cortex (microglia; day 5): approximately 90%
microglial reduction (microglia; 169 mg/kg): 100%
mean accumulation index (Racc) (clinical; human): 1.07-1.24
AUC(0-t) (clinical; human, po, 150 mg): 102 µg·h/mL
Cmax (clinical; human, po, 150 mg): 6950 ng/mL
AUC(0-t) (clinical; human, po, 300 mg): 203 µg·h/mL
Cmax (clinical; human, po, 300 mg): 13900 ng/mL
AUC(0-t) (clinical; human, po, 600 mg): 378 µg·h/mL
Cmax (clinical; human, po, 600 mg): 24500 ng/mL
AUC(0-t) (clinical; human, po, 800 mg): 413 µg·h/mL
Cmax (clinical; human, po, 800 mg): 22700 ng/mL
AUC(0-t) (clinical; human, po, 1200 mg): 599 µg·h/mL
Cmax (clinical; human, po, 1200 mg): 32700 ng/mL
absorption (clinical; po): rapid absorption
Spinal Cord Conc. ([1]; 65 mg/kg q.d., 3 h post-dose): 11799.8 pmol/g
Spinal Cord Conc. ([1]; 170 mg/kg CONT, 3 h post-dose): 28358.8 pmol/g
Spinal Cord Conc. ([1]; 170 mg/kg INT (7 day ON/7 day OFF), 3 h post-dose): 18573.5 pmol/g
Kp at 3 h ([1]; SOD1G93A (transgenic ALS model), 170 mg/kg CONT, 3 h post-dose, read-out: Spinal Cord/Blood ratio): 0.42
concentration at 3 h ([1]; SOD1G93A, 65 mg/kg, 65 mg/kg q.d., 3 h post-dose): 29.3 µM
concentration at 3 h ([1]; SOD1G93A, 170 mg/kg, 170 mg/kg CONT, 3 h post-dose): 66.3 µM
concentration at 3 h ([1]; SOD1G93A, 170 mg/kg, 170 mg/kg INT (7 day ON/7 day OFF), 3 h post-dose): 50.4 µM
Kp at 3 h ([1]; SOD1G93A, 65 mg/kg q.d., 3 h post-dose, read-out: Spinal Cord/Blood ratio): 0.42
Kp at 3 h ([1]; SOD1G93A, 170 mg/kg INT (7 day ON/7 day OFF), 3 h post-dose, read-out: Spinal Cord/Blood ratio): 0.36
Kp at 3 h ([1]; SOD1G93A, across dose groups, 3 hours post-dose, read-out: spinal cord exposure ratios (relative to blood)): ~0.4
